Results from US8901118B2, “Compounds and methods for kinase modulation, and indications therefor” (Plexxikon Inc., priority 2010, dated 2014).

Experiments:
[1] = target: CYP3A4(BQ) (Homo sapiens, UniProt P08684); assay: CYP3A4(BQ) inhibition; type: in vitro ADME; details: CYP3A4, substrate BQ; read-out: Cyp IC50 3A4(BQ)
Summary of the method: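 After 30 min incubation at 37° C, plates were read on a Tecan Safire 2 at 409 ex/460 em, and IC50 values came from signal plotted against compound concentration. Enzyme and substrate were sourced from BD Biosciences. The cofactor mix held 1.3% NADPH Regeneration system Solution A, 1.04% Solution B, 5% acetonitrile and 0.05% DMSO.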

[2] = system: Osteoclast precursor cells; assay: Osteoclast differentiation assay (acid phosphatase readout); type: cell-based
Method: Further, an osteoclast differentiation assay is used to assess the efficacy of Fms inhibitors for treating bone disease such as osteoarthritis. On day 0, Osteoclast Medium BulletKit (Lonza catalog #PT-8001, containing Media, FBS, L-Glutamine, PenStrep, RANKL, and M-CSF) media is thawed and the FBS, L-glutamine and PenStrep from the kit is added to 100 mL of Osteoclast Precursor Basal medium to provide the Osteoclast Precursor Growth Medium (OPGM). This is warmed to 37° C. Osteoclast precursor cells (Lonza catalog #2T-110) frozen in cryovial are warmed to 37° C. and transferred to a 50 mL conical tube. The cryovial is rinsed with OPGM and added dropwise to the conical tube of cells with swirling, then the volume is adjusted to 20-30 mL with addition of OPGM. The cells are centrifuged at 200×g for 15 minutes at room temperature and all but approximately 3 mL of supernatant is removed to a new conical tube. The cells are suspended in the remaining supernatant and the volume is adjusted to 10-15 mL with OPGM added dropwise with swirling. The cells are centrifuged at 200×g for 15 minutes at room temperature and all but approximately 1 mL of supernatant is removed. The cells are resuspended in the remaining supernatant, counted, and the volume adjusted with an appropriate amount of OPGM to provide approximately 1×10^5 cells/mL. A 0.1 mL aliquot of cells is added to each well of a 96-well plate. Compound to be tested is prepared in DMSO for plating at a high concentration of 2.5 mM, with 8 point 1:3 serial dilutions. A 1 μL aliquot of each compound dilution is added to a 96 well v-bottom polypropylene plate and 0.124 mL of OPGM is added to the compound. Then 50 μL at of the compound in OPGM is added to the osteoclast precursor cells in 96-well plate (providing highest test concentration of 5 μM). RANKL (2 μg) from the BulletKit is reconstituted in 1 mL of OPGM, then vortexed and centrifuged briefly. A 792 μL at aliquot of RANKL is added to 6 mL of OPGM and 50 μL at is added to low control wells. Then 76.6 μL M-CSF (10 μg/mL) from the BulletKit is added to the remaining 5.8 mL of OPGM/RANKL solution (4×RANKL/M-CSF/OPGM). A 50 μL at aliquot of this is added to the remaining wells, and the remainder is stored at 4° C. for later use. The plate is incubated at 37° C. for 6 days, then the remaining OPGM/RANKL/M-CSF solution is warmed to 37° C. The remaining approximately 198 μL is combined with 6 mL of OPGM. The media is aspirated from the osteoclast wells and 100 μL of RANKL/OPGM is added to the low controls. The remaining RANKL/OPGM is combined with the approximately 18.5 μL of remaining M-CSF. The remaining 4×RANKL/M-CSF/OPGM from day 0 is diluted to 1× and combined with the freshly prepared solution. A 0.1 mL aliquot of this is added to each osteoclast well and incubated for 37° C. for 1 day. The Acid Phosphatase kit (Cayman Chemical catalog #10008051) is warmed to room temperature. The assay buffer is diluted 5 mL with 45 mL of water. For each plate, two substrate tablets are dissolved in 4.5 mL of the assay buffer, mixing by vortex to break up the tablet. Stop solution is diluted 12 mL with 36 mL of water. In a tissue culture hood, 20 μL of each osteoclast well supernatant is transferred to a 96 well plate. A 30 μL aliquot of the substrate solution is added to each well and incubated at 37° C. for 20 minutes, then added 100 μL stop solution to each well. The absorbance of each well is read at 405 nm on Safire plate reader. The absorbance reading is plotted vs. concentration to provide the IC50 for each compound.

Chain of CYP3A4(BQ) (P08684 whole entry): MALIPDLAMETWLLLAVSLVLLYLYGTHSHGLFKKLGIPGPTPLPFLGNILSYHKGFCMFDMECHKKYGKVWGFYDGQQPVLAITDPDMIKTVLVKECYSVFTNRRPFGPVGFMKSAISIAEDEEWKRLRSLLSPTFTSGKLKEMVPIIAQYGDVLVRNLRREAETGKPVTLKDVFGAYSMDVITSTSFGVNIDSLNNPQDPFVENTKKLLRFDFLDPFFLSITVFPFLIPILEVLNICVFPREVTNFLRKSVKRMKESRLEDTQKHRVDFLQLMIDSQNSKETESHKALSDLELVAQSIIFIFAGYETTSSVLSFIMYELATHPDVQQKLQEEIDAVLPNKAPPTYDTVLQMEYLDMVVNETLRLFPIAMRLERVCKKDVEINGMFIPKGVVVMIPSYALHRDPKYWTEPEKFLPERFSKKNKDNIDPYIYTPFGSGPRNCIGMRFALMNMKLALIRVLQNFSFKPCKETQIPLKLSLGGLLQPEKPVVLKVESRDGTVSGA

IC50 [1] [µM]	IC50 [2] [µM]	SMILES
> 10	< 0.1	CCn1cc(Nc2ccc(Cc3c[nH]c4ncnc(OC)c34)c(F)n2)cn1 [Compound P-4011, (1-Ethyl-1H-pyrazol-4-yl)-[6-fluoro-5-(4-methoxy-7H-pyrrolo[2,3-d]pyrimidin-5-ylmethyl)-pyridin-2-yl]-amine]
> 10	< 0.1	CCOc1ccc(Nc2ccc(Cc3c[nH]c4ncnc(OCCOC)c34)c(F)n2)cn1 [Compound P-4008, (6-Ethoxy-pyridin-3-yl)-{6-fluoro-5-[4-(2-methoxy-ethoxy)-7H-pyrrolo[2,3-d]pyrimidin-5-ylmethyl]-pyridin-2-yl}-amine]
> 10	< 0.1	COCCOc1ncnc2[nH]cc(Cc3ccc(Nc4ccc(C)nc4)nc3F)c12 [Compound P-4015, {6-Fluoro-5-[4-(2-methoxy-ethoxy)-7H-pyrrolo[2,3-d]pyrimidin-5-ylmethyl]-pyridin-2-yl}-(6-methyl-pyridin-3-yl)-amine]
> 10	< 0.1	CCn1cc(Nc2ccc(Cc3c[nH]c4ncnc(C)c34)c(F)n2)cn1 [Compound P-4013, (1-Ethyl-1H-pyrazol-4-yl)-[6-fluoro-5-(4-methyl-7H-pyrrolo[2,3-d]pyrimidin-5-ylmethyl)-pyridin-2-yl]-amine]
> 10	< 0.1	CCc1ccc(Nc2ccc(Cc3c[nH]c4ncnc(OC)c34)c(F)n2)cn1 [Compound P-4007, (6-Ethyl-pyridin-3-yl)-[6-fluoro-5-(4-methoxy-7H-pyrrolo[2,3-d]pyrimidin-5-ylmethyl)-pyridin-2-yl]-amine]
> 10	< 0.1	CCOc1ccc(Nc2ccc(Cc3c[nH]c4ncnc(OC)c34)c(F)n2)cn1 [Compound P-4005, (6-Ethoxy-pyridin-3-yl)-[6-fluoro-5-(4-methoxy-7H-pyrrolo[2,3-d]pyrimidin-5-ylmethyl)-pyridin-2-yl]-amine]
> 10	< 0.1	CCc1ccc(Nc2ccc(Cc3c[nH]c4ncnc(C)c34)c(F)n2)cn1 [Compound P-4009, (6-Ethyl-pyridin-3-yl)-[6-fluoro-5-(4-methyl-7H-pyrrolo[2,3-d]pyrimidin-5-ylmethyl)-pyridin-2-yl]-amine]
> 10	< 0.1	COc1ncnc2[nH]cc(Cc3ccc(Nc4ccc(C)nc4)nc3F)c12 [Compound P-4010, [6-Fluoro-5-(4-methoxy-7H-pyrrolo[2,3-d]pyrimidin-5-ylmethyl)-pyridin-2-yl]-(6-methyl-pyridin-3-yl)-amine]
> 10	< 0.1	CCOc1ccc(Nc2ccc(Cc3c[nH]c4ncnc(C)c34)c(F)n2)cn1 [Compound P-4006, (6-Ethoxy-pyridin-3-yl)-[6-fluoro-5-(4-methyl-7H-pyrrolo[2,3-d]pyrimidin-5-ylmethyl)-pyridin-2-yl]-amine]
> 10	< 0.1	CCOc1ncnc2[nH]cc(Cc3ccc(Nc4cnn(CC)c4)nc3F)c12 [Compound P-4012, [5-(4-Ethoxy-7H-pyrrolo[2,3-d]pyrimidin-5-ylmethyl)-6-fluoro-pyridin-2-yl]-(1-ethyl-1H-pyrazol-4-yl)-amine]
> 10	< 0.1	CCc1ccc(Nc2ccc(Cc3c[nH]c4ncnc(OCCOC)c34)c(F)n2)cn1 [Compound P-4016, (6-Ethyl-pyridin-3-yl)-{6-fluoro-5-[4-(2-methoxy-ethoxy)-7H-pyrrolo[2,3-d]pyrimidin-5-ylmethyl]-pyridin-2-yl}-amine]
> 10	< 0.1	CCn1cc(Nc2ccc(Cc3c[nH]c4ncnc(OCCOC)c34)c(F)n2)cn1 [Compound P-4014, (1-Ethyl-1H-pyrazol-4-yl)-{6-fluoro-5-[4-(2-methoxy-ethoxy)-7H-pyrrolo[2,3-d]pyrimidin-5-ylmethyl]-pyridin-2-yl}-amine]
> 10	< 0.1	COc1ccc(Nc2ccc(Cc3c[nH]c4ncnc(C5CC5)c34)c(F)n2)cn1 [Compound P-4023, [5-(4-cyclopropyl-7H-pyrrolo[2,3-d]pyrimidin-5-ylmethyl)-6-fluoro-pyridin-2-yl]-(6-methoxy-pyridin-3-yl)-amine]

More lines, now with the values behind:

SMILES	IC50 [1] [µM]	IC50 [2] [µM]
Cc1ccc(Nc2ccc(Cc3c[nH]c4ncc(Cl)cc34)c(F)n2)cn1 [Compound P-3042, [5-(5-Chloro-1H-pyrrolo[2,3-b]pyridin-3-ylmethyl)-6-fluoro-pyridin-2-yl]-(6-methyl-pyridin-3-yl)-amine]		< 0.1
CCOc1ccc(Nc2ccc(Cc3c[nH]c4ncc(C)cc34)c(F)n2)cn1 [Compound P-3039, (6-ethoxy-pyridin-3-yl)-[6-fluoro-5-(5-methyl-1H-pyrrolo[2,3-b]pyridin-3-ylmethyl)-pyridin-2-yl]-amine]		< 0.1
Clc1cnc2[nH]cc(Cc3cnc(NC4CCCCCC4)nc3)c2c1 [Compound P-3006, [5-(5-Chloro-1H-pyrrolo[2,3-b]pyridin-3-ylmethyl)-pyrimidin-2-yl]-cycloheptyl-amine]		< 0.1
COc1ccc(Nc2ccc(Cc3c[nH]c4ncc(C)cc34)c(F)n2)cn1 [Compound P-3019, [6-fluoro-5-(5-methyl-1H-pyrrolo[2,3-b]pyridin-3-ylmethyl)-pyridin-2-yl]-(6-methoxy-pyridin-3-yl)-amine]	> 10	< 0.1
CCn1cc(Nc2ncc(Cc3c[nH]c4ncc(C)cc34)cn2)cn1 [Compound P-3036, (1-Ethyl-1H-pyrazol-4-yl)-[5-(5-methyl-1H-pyrrolo[2,3-b]pyridin-3-ylmethyl)-pyrimidin-2-yl]-amine]		< 0.1
Cc1cnc2[nH]cc(Cc3ccc(Nc4ccc(C)nc4)nc3F)c2c1 [Compound P-3041, [6-Fluoro-5-(5-methyl-1H-pyrrolo[2,3-b]pyridin-3-ylmethyl)-pyridin-2-yl]-(6-methyl-pyridin-3-yl)-amine]	> 10	< 0.1
COc1ncnc2[nH]cc(Cc3ccc(Nc4ccc(C5CC5)nc4)nc3F)c12 [Compound P-4004, (6-Cyclopropyl-pyridin-3-yl)-[6-fluoro-5-(4-methoxy-7H-pyrrolo[2,3-d]pyrimidin-5-ylmethyl)-pyridin-2-yl]-amine]	> 10	< 0.1
COc1ccc(Nc2ccc(Cc3c[nH]c4ncnc(OC)c34)c(F)n2)cn1 [Compound P-4001, [6-Fluoro-5-(4-methoxy-7H-pyrrolo[2,3-d]pyrimidin-5-ylmethyl)-pyridin-2-yl]-(6-methoxy-pyridin-3-yl)-amine]		< 0.1
CCOc1ccc(Nc2ncc(Cc3c[nH]c4ncc(C)cc34)cn2)cn1 [Compound P-3027, (6-Ethoxy-pyridin-3-yl)-[5-(5-methyl-1H-pyrrolo[2,3-b]pyridin-3-ylmethyl)-pyrimidin-2-yl]-amine]		< 0.1
FC1(F)CCC(Nc2ncc(Cc3c[nH]c4ncc(Cl)cc34)cn2)CC1 [Compound P-3004]	> 10	< 0.1
